This is an account of results in patent US10954228B2 (NATIONAL INSTITUTES OF HEALTH, UNITED STATES DEPARTMENT OF …, priority 2016, dated 2021).

For orientation: IC50 means the point on the concentration scale where inhibition reaches its midpoint. A low value points to greater potency.

One assay deals with Human LDHA (Homo sapiens (Human), UniProt P00338). The experiment in a line: human LDHA primary biochemical assay. The conditions noted are these: biochemical LDHA inhibitory activity, assay of Example 1; activity level classes defined in nM. A digest of the protocol:
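Human LDHA at 2 nM with 0.06 mM NADH and 0.2 mM sodium pyruvate in 200 mM Tris HCl pH 7.4, 100 μM EDTA, 0.01% TWEEN-20 (final). NADH consumption coupled to resazurin/diaphorase (0.037 mM; 0.133 mg/mL); inhibition read by fluorescence.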

A further assay relates to MiaPaCa2 cells. Nature of the assay: cell-based HT lactate assay by colorimetric/fluorometric detection (cellular inhibition of lactate production). The procedure: This example describes a cell-based metabolite assay by colorimetric/fluorometric detection employed in the characterization of a compound of formula (I) in an embodiment of the invention.
Cell-based HT Lactate assay is a miniaturized Biovision Lactate Colorimetric/Fluorometric Assay Kit (Cat #K607-100). The assay is roughly a 3.5 hour assay run in a 1536 plate format. Cell number optimization should be run for each cell line to achieve an optimal number in which lactate production equals roughly 90% of the standard curve range. Cell number per well optimization has been performed with the following cell lines: MiaPaCa2—500 cells/well, SNU398—500 cells/well, and P493—500 cells/well.

The mark [1] stands for this setting: Homo sapiens, MIA PaCa-2, assay of Example 6.

As to `Cc1ccc(C#Cc2cccc(-c3nn(-c4nc(C(=O)O)cs4)c(CC4CC4)c3Cc3ccc(S(N)(=O)=O)c(F)c3)c2)s1` [Compound 112, 2-(5-(cyclopropylmethyl)-4-(3-fluoro-4-sulfamoylbenzyl)-3-(3-((5-methylthiophen-2-yl)ethynyl)phenyl)-1H-pyrazol-1-yl)thiazole-4-carboxylic acid], the IC50 is below 100 nM on Human LDHA and below 1000 nM in the assay with MiaPaCa2 cells (setting [1]).
The like results for `Cc1ccc(C#Cc2cc(-c3nn(-c4nc(C(=O)O)cs4)c(CCC4CC4)c3Cc3ccc(S(N)(=O)=O)c(F)c3)ccc2F)s1` [Compound 113, 2-(5-(2-cyclopropylethyl)-3-(4-fluoro-3-((5-methylthiophen-2-yl)ethynyl)phenyl)-4-(3-fluoro-4-sulfamoylbenzyl)-1H-pyrazol-1-yl)thiazole-4-carboxylic acid] were, in that order, below 100 nM and below 1000 nM.
For `Cc1cnc(C#Cc2cc(-c3nn(-c4nc(C(=O)O)cs4)c(CC4CC4)c3Cc3ccc(S(N)(=O)=O)c(F)c3)ccc2F)s1` [Compound 114, 2-(5-(cyclopropylmethyl)-3-(4-fluoro-3-((5-methylthiazol-2-yl)ethynyl)phenyl)-4-(3-fluoro-4-sulfamoylbenzyl)-1H-pyrazol-1-yl) thiazole-4-carboxylic acid] the same measures were below 100 nM and below 1000 nM.
For `Cc1ccc(C#Cc2cccc(-c3nn(-c4nc(C(=O)O)cs4)c(CCC4CC4)c3Cc3ccc(S(N)(=O)=O)c(F)c3)c2)s1` [Compound 115, 2-(5-(2-cyclopropylethyl)-4-(3-fluoro-4-sulfamoylbenzyl)-3-(3-((5-methylthiophen-2-yl)ethynyl)phenyl)-1H-pyrazol-1-yl)thiazole-4-carboxylic acid] the same measures were below 100 nM and below 1000 nM.
In the case of `NS(=O)(=O)c1ccc(Cc2c(-c3cccc(C#Cc4ccc(C5CC5)s4)c3)nn(-c3nc(C(=O)O)cs3)c2CC2CC2)cc1F` [Compound 117, 2-(5-(cyclopropylmethyl)-3-(3-((5-cyclopropylthiophen-2-yl)ethynyl)phenyl)-4-(3-fluoro-4-sulfamoylbenzyl)-1H-pyrazol-1-yl)thiazole-4-carboxylic acid], the IC50 against Human LDHA was 100 to 1000 nM; in the assay with MiaPaCa2 cells (setting [1]) it was below 1000 nM.
As to `NS(=O)(=O)c1ccc(Cc2c(-c3cccc(C#Cc4ccc(Cl)s4)c3)nn(-c3nc(C(=O)O)cs3)c2CC2CC2)cc1F` [Compound 118, 2-(3-(3-((5-chlorothiophen-2-yl)ethynyl)phenyl)-5-(cyclopropylmethyl)-4-(3-fluoro-4-sulfamoylbenzyl)-1H-pyrazol-1-yl)thiazole-4-carboxylic acid], the figures for the IC50 against Human LDHA and in the assay on MiaPaCa2 cells (setting [1]) were below 100 nM and below 1000 nM, respectively.
For `Cc1ccc(/C=C/c2cccc(-c3nn(-c4nc(C(=O)O)cs4)c(CC4CC4)c3Cc3ccc(S(N)(=O)=O)c(F)c3)c2)s1` [Compound 119, (E)-2-(5-(cyclopropylmethyl)-4-(3-fluoro-4-sulfamoylbenzyl)-3-(3-(2-(5-methylthiophen-2-yl)vinyl)phenyl)-1H-pyrazol-1-yl)thiazole-4-carboxylic acid] the same measures were below 100 nM and below 1000 nM.
For the compound `Cc1ccsc1C#Cc1cccc(-c2nn(-c3nc(C(=O)O)cs3)c(CC3CC3)c2Cc2ccc(S(N)(=O)=O)c(F)c2)c1` [Compound 120, 2-(5-(cyclopropylmethyl)-4-(3-fluoro-4-sulfamoylbenzyl)-3-(3-((3-methylthiophen-2-yl)ethynyl)phenyl)-1H-pyrazol-1-yl) thiazole-4-carboxylic acid], the values for the IC50 at Human LDHA and with MiaPaCa2 cells (setting [1]) were below 100 nM and below 1000 nM, respectively.
For `NS(=O)(=O)c1ccc(Cc2c(-c3cccc(C#Cc4ccc(C(F)F)s4)c3)nn(-c3nc(C(=O)O)cs3)c2CC2CC2)cc1F` [Compound 121, 2-(5-(cyclopropylmethyl)-3-(3-((5-(difluoromethyl)thiophen-2-yl)ethynyl)phenyl)-4-(3-fluoro-4-sulfamoylbenzyl)-1H-pyrazol-1-yl)thiazole-4-carboxylic acid] the same measures were below 100 nM and below 1000 nM.
For `Cc1cnc(C#Cc2cccc(-c3nn(-c4nc(C(=O)O)cs4)c(CC4CC4)c3Cc3ccc(S(N)(=O)=O)c(F)c3)c2)o1` [Compound 122, 2-(5-(cyclopropylmethyl)-4-(3-fluoro-4-sulfamoylbenzyl)-3-(3-((5-methyloxazol-2-yl)ethynyl)phenyl)-1H-pyrazol-1-yl)thiazole-4-carboxylic acid] the same measures were below 100 nM and below 1000 nM.
The like results for `Cc1ccc(C#Cc2cccc(-c3nn(-c4nc(C(=O)O)cs4)c(CC4(C)CC4)c3Cc3ccc(S(N)(=O)=O)c(F)c3)c2)s1` [Compound 123, 2-(4-(3-fluoro-4-sulfamoylbenzyl)-5-((1-methylcyclopropyl)methyl)-3-(3-((5-methylthiophen-2-yl)ethynyl)phenyl)-1H-pyrazol-1-yl)thiazole-4-carboxylic acid] were, in that order, below 100 nM and below 1000 nM.
In the case of `NS(=O)(=O)c1ccc(Cc2c(-c3cccc(C#Cc4ccc(C(F)(F)F)s4)c3)nn(-c3nc(C(=O)O)cs3)c2CC2CC2)cc1F` [Compound 124, 2-(5-(cyclopropylmethyl)-4-(3-fluoro-4-sulfamoylbenzyl)-3-(3-((5-(trifluoromethyl)thiophen-2-yl)ethynyl)phenyl)-1H-pyrazol-1-yl)thiazole-4-carboxylic acid], the IC50 was 100 to 1000 nM on Human LDHA and below 1000 nM in the assay with MiaPaCa2 cells (setting [1]).
For `Cc1cc(C)c(C#Cc2cccc(-c3nn(-c4nc(C(=O)O)cs4)c(CC4CC4)c3Cc3ccc(S(N)(=O)=O)c(F)c3)c2)s1` [Compound 125, 2-(5-(cyclopropylmethyl)-3-(3-((3,5-dimethylthiophen-2-yl)ethynyl)phenyl)-4-(3-fluoro-4-sulfamoylbenzyl)-1H-pyrazol-1-yl) thiazole-4-carboxylic acid] the same measures were below 100 nM and below 1000 nM.
The like results for `CC(C)c1ccc(C#Cc2cccc(-c3nn(-c4nc(C(=O)O)cs4)c(CC4CC4)c3Cc3ccc(S(N)(=O)=O)c(F)c3)c2)s1` [Compound 127, 2-(5-(cyclopropylmethyl)-4-(3-fluoro-4-sulfamoylbenzyl)-3-(3-((5-isopropylthiophen-2-yl)ethynyl)phenyl)-1H-pyrazol-1-yl)thiazole-4-carboxylic acid] were, in that order, 100 to 1000 nM and below 1000 nM.
The like results for `Cc1ccc(C#Cc2cccc(-c3nn(-c4nc(C(=O)O)cs4)c(CC4CC4)c3Cc3ccc(S(N)(=O)=O)c(F)c3)c2)o1` [Compound 129, 2-(5-(cyclopropylmethyl)-4-(3-fluoro-4-sulfamoylbenzyl)-3-(3-((5-methylfuran-2-yl)ethynyl)phenyl)-1H-pyrazol-1-yl)thiazole-4-carboxylic acid] were, in that order, below 100 nM and below 1000 nM.
For `Cc1ccc(C2CC2c2cccc(-c3nn(-c4nc(C(=O)O)cs4)c(CC4CC4)c3Cc3ccc(S(N)(=O)=O)c(F)c3)c2)s1` (stereo not drawn) [Compound 130, 2-(5-(cyclopropylmethyl)-4-(3-fluoro-4-sulfamoylbenzyl)-3-(3-(2-(5-methylthiophen-2-yl)cyclopropyl)phenyl)-1H-pyrazol-1-yl)thiazole-4-carboxylic acid], the IC50 on Human LDHA was below 100 nM; in the assay on MiaPaCa2 cells (setting [1]) it was below 1000 nM.
In the case of `Cc1ccc(C#Cc2cccc(-c3nn(-c4nc(C(=O)O)cs4)c(C4CC45CC5)c3Cc3ccc(S(N)(=O)=O)c(F)c3)c2)s1` (stereo not drawn) [Compound 131, 2-(4-(3-fluoro-4-sulfamoylbenzyl)-3-(3-((5-methylthiophen-2-yl)ethynyl)phenyl)-5-(spiro[2.2]pentan-1-yl)-1H-pyrazol-1-yl)thiazole-4-carboxylic acid], the values for the IC50 at Human LDHA and in the assay with MiaPaCa2 cells (setting [1]) were below 100 nM and below 1000 nM, respectively.
The like results for `Cc1ccc([C@H]2C[C@@H](c3cccc(-c4nn(-c5nc(C(=O)O)cs5)c(CC5CC5)c4Cc4ccc(S(N)(=O)=O)c(F)c4)c3)C2)s1` [Compound 132, 2-(5-(cyclopropylmethyl)-4-(3-fluoro-4-sulfamoylbenzyl)-3-(3-((cis)-3-(5-methylthiophen-2-yl)cyclobutyl)phenyl)-1H-pyrazol-1-yl)thiazole-4-carboxylic acid] were, in that order, below 100 nM and below 1000 nM.
As to `Cc1ccc(C2CC(c3cccc(-c4nn(-c5nc(C(=O)O)cs5)c(CC5CC5)c4Cc4ccc(S(N)(=O)=O)c(F)c4)c3)C2)s1` (stereo not drawn) [Compound 133, 2-(5-(cyclopropylmethyl)-4-(3-fluoro-4-sulfamoylbenzyl)-3-(3-(3-(5-methylthiophen-2-yl)cyclobutyl)phenyl)-1H-pyrazol-1-yl)thiazole-4-carboxylic acid], the values for the IC50 on Human LDHA and in the assay with MiaPaCa2 cells (assay of Example 6) were below 100 nM and below 1000 nM, respectively.
On to `Cc1ccc(-c2cc(-c3nn(-c4nc(C(=O)O)cs4)c(CC4CC4)c3Cc3ccc(S(N)(=O)=O)c(F)c3)ccc2F)cc1F` [Compound 137, 2-(5-(cyclopropylmethyl)-3-(3′,6-difluoro-4′-methyl-[1,1′-biphenyl]-3-yl)-4-(3-fluoro-4-sulfamoylbenzyl)-1H-pyrazol-1-yl)thiazole-4-carboxylic acid], for which the figures for the IC50 on Human LDHA and with MiaPaCa2 cells (setting [1]) were below 100 nM and below 1000 nM, respectively.
The like results for `NS(=O)(=O)c1ccc(Cc2c(-c3ccc(F)c(-c4ccc(C(F)(F)F)cc4)c3)nn(-c3nc(C(=O)O)cs3)c2CC2CC2)cc1F` [Compound 138, 2-(5-(cyclopropylmethyl)-3-(6-fluoro-4′-(trifluoromethyl)-[1,1′-biphenyl]-3-yl)-4-(3-fluoro-4-sulfamoylbenzyl)-1H-pyrazol-1-yl)thiazole-4-carboxylic acid] were, in that order, below 100 nM and below 1000 nM.
